Test systems include LOX IMVI melanoma; SN12C renal; PC-3 prostate; HT29 colon; UACC-257 melanoma; OVCAR-4 ovarian; SK-OV-3 ovarian; M14 melanoma; A549 NSCLC.
Holding throughout (experiment): growth of human tumour cells (NCI), 48 h

Where “and” joins values, the source holds several entries; their conditions need not be identical. Equal values may be shown once.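 Grown in 96-well plates, cells were treated for 48 hours with each compound at five concentrations. Insufficient inhibition: endpoint recorded as highest concentration tested. Abbreviation: GI50, concentration required for 50% inhibition of growth. TGI: concentration producing complete growth inhibition.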

As for `O=[N+]([O-])/C=C/c1cn(CCCCCCCCn2cc(/C=C/[N+](=O)[O-])c3ccccc32)c2ccccc12`, the TGI in the assay with LOX IMVI melanoma, with SN12C renal, with PC-3 prostate, in the assay with HT29 colon, with UACC-257 melanoma and with OVCAR-4 ovarian was greater than 10 µM each time. Further, the TGI in the assay on SK-OV-3 ovarian, in the assay on M14 melanoma and in the assay with A549 NSCLC was greater than 10 µM in each case.

Regarding `CCOC(=O)c1cnc2c(ccc3ncccc32)c1OCC`, the TGI with LOX IMVI melanoma, in the assay with SN12C renal, in the assay with HT29 colon, with UACC-257 melanoma, in the assay on OVCAR-4 ovarian and with SK-OV-3 ovarian was greater than 100 µM each time. The TGI in the assay with M14 melanoma and with A549 NSCLC was greater than 100 µM each time.

Take `COc1ccc(S(=O)(=O)NNS(C)(=O)=O)cc1OC`: the TGI in the assay on LOX IMVI melanoma, with SN12C renal, in the assay on HT29 colon, in the assay on UACC-257 melanoma, with OVCAR-4 ovarian and in the assay on M14 melanoma was greater than 100 µM each time. In addition, in the assay with A549 NSCLC, the TGI is greater than 100 µM.

In the case of `CCOc1ccc(N=Nc2c(-c3ccccc3)nn(C(=O)CC(=O)Nc3ccccc3Cl)c2-c2ccccc2)cc1`, the TGI in the assay with LOX IMVI melanoma, in the assay on SN12C renal, with HT29 colon, in the assay with UACC-257 melanoma, in the assay on OVCAR-4 ovarian and with SK-OV-3 ovarian was greater than 100 µM in each case. Further, the TGI in the assay with M14 melanoma and with A549 NSCLC was greater than 100 µM each time.

For `COc1cc2ccc(CC(=O)O)cc2cc1OC`, the TGI in the assay on SN12C renal, with HT29 colon, in the assay on UACC-257 melanoma, with OVCAR-4 ovarian, in the assay on SK-OV-3 ovarian and in the assay with M14 melanoma was greater than 100 µM each time. Further, in the assay with A549 NSCLC, the TGI is greater than 100 µM.

In the case of `CN(C)CCC(/C=C/c1ccccc1)=N\Nc1c(F)c(F)c(F)c(F)c1F`, the TGI in the assay with LOX IMVI melanoma, with SN12C renal, in the assay on HT29 colon, in the assay on UACC-257 melanoma, in the assay on OVCAR-4 ovarian and in the assay on SK-OV-3 ovarian was greater than 100 µM throughout. Moreover, the TGI with M14 melanoma and with A549 NSCLC was greater than 100 µM throughout.

As to `Cc1ccccc1NC(=O)C(=O)CC(=O)c1sc(-n2nc(-c3ccccc3)cc2-c2ccccc2)nc1C`, the TGI with LOX IMVI melanoma, with SN12C renal, in the assay with HT29 colon, with UACC-257 melanoma, in the assay with OVCAR-4 ovarian and in the assay with SK-OV-3 ovarian was greater than 100 µM each time. Further, the TGI in the assay with M14 melanoma and with A549 NSCLC was greater than 100 µM in each case.

With `O=c1ccc(=O)c2c1c1[nH]c3ccccc3c1c1c(=O)c3ccccc3c(=O)c21`, the TGI in the assay with LOX IMVI melanoma, in the assay on SN12C renal, in the assay with PC-3 prostate, in the assay with HT29 colon, in the assay on UACC-257 melanoma and in the assay on OVCAR-4 ovarian was greater than 10 µM each time. The TGI with SK-OV-3 ovarian, in the assay on M14 melanoma and with A549 NSCLC was greater than 10 µM in each case.

Turning to `O=C(Nc1c(Cl)cc([N+](=O)[O-])cc1Cl)C(=O)C(C(=O)c1ccncc1)C1OC(=O)c2ccccc21` (stereo not given), the TGI with LOX IMVI melanoma, in the assay with SN12C renal, in the assay on HT29 colon, in the assay with UACC-257 melanoma, with OVCAR-4 ovarian and in the assay on SK-OV-3 ovarian was greater than 100 µM each time. Further, the TGI with M14 melanoma and in the assay on A549 NSCLC was greater than 100 µM throughout.

For `CC1(O)CC2C(CC1SCc1ccccc1)C2(C)C` (stereo not given), the TGI with LOX IMVI melanoma is 29.3 µM and 31.5 µM; with SN12C renal it was 43 µM and 29.5 µM; with HT29 colon, 49.1 µM and 29.9 µM; in the assay on UACC-257 melanoma, 59.5 µM and 24.7 µM; in the assay with OVCAR-4 ovarian it was > 100 µM and 29.3 µM; in the assay on SK-OV-3 ovarian, > 100 µM and 29.2 µM. For the same molecule, the TGI is 87.2 µM and 28.9 µM in the assay with M14 melanoma; > 100 µM and 31.1 µM in the assay with A549 NSCLC. Further, the GI50 in the assay with UACC-257 melanoma was 26.2 µM and 12 µM; in the assay with OVCAR-4 ovarian, 52.8 µM and 15.6 µM; in the assay with SK-OV-3 ovarian, 37.5 µM and 15.7 µM; with A549 NSCLC it was 40.9 µM and 17.4 µM.

In the case of `COc1cc2c(c(OC)c1OC)-c1ccc(SC)c(=O)cc1C(CC(=O)Oc1ccccc1F)C2` (stereo not given), the TGI is 4.28 µM with LOX IMVI melanoma; greater than 7.5 µM with SN12C renal; 0.0324 µM in the assay with HT29 colon; greater than 7.5 µM in the assay with OVCAR-4 ovarian; greater than 7.5 µM with SK-OV-3 ovarian; 0.908 µM with M14 melanoma. Besides, in the assay with A549 NSCLC, the TGI was greater than 7.5 µM.

As for `Cc1cc(N(CCC#N)CCC#N)ccc1/C=C1N=C(/C=C\c2ccccc2)N(c2ccc(C(=O)O)cc2)C\1=O`, the TGI in the assay with LOX IMVI melanoma, in the assay with SN12C renal, with HT29 colon, in the assay on UACC-257 melanoma, in the assay on OVCAR-4 ovarian and in the assay on SK-OV-3 ovarian was greater than 100 µM each time. Also, the TGI in the assay with M14 melanoma and in the assay with A549 NSCLC was greater than 100 µM each time.

As to `NC(=O)N1N=C2c3ccccc3OC[C@H]2[C@@H]1c1ccccc1`, the TGI is greater than 100 µM in the assay on LOX IMVI melanoma; greater than 100 µM in the assay on SN12C renal; 67.6 µM in the assay with HT29 colon; greater than 100 µM in the assay on UACC-257 melanoma; greater than 100 µM in the assay with OVCAR-4 ovarian; greater than 100 µM in the assay with SK-OV-3 ovarian. Further, the TGI in the assay with M14 melanoma was 5.59 µM; in the assay with A549 NSCLC, greater than 100 µM.

Consider `COC(=O)C1C(=O)NC2(C)CC1c1ccccc1O2` (stereo not given), for which the TGI in the assay with LOX IMVI melanoma, in the assay with SN12C renal, with HT29 colon, in the assay with UACC-257 melanoma, in the assay with OVCAR-4 ovarian and in the assay on SK-OV-3 ovarian was greater than 100 µM each time. Further, the TGI in the assay with M14 melanoma is greater than 10 µM; in the assay on A549 NSCLC, greater than 100 µM.

On to `O=C(CC/C(CC(=O)c1ccc(Cl)cc1)=N\O)Nc1cccc(Cl)c1`, for which the TGI in the assay on LOX IMVI melanoma, in the assay on SN12C renal, with HT29 colon, in the assay on UACC-257 melanoma, in the assay on OVCAR-4 ovarian and in the assay with SK-OV-3 ovarian was greater than 100 µM each time. Moreover, the TGI in the assay with M14 melanoma and with A549 NSCLC was greater than 100 µM in each case.

As to `Cc1ccc(-n2cc(/C(N)=N/O)c3ccccc3c2=O)cc1`, the TGI in the assay with LOX IMVI melanoma, in the assay with SN12C renal, in the assay with HT29 colon, in the assay with UACC-257 melanoma, in the assay on SK-OV-3 ovarian and in the assay on M14 melanoma was greater than 100 µM in each case. The same molecule displayed a TGI in the assay on A549 NSCLC greater than 100 µM.

For the origin of these results see PubChem BioAssay (NCI).
